pIC50: −log10 of the molar value.

In general, half-life refers to the time needed for the level to fall by half in the phase considered. Usually pIC50 stands for the negative decadic logarithm of the IC50, by convention in mol/L.

Series [1] is described as follows: Selectivity index, ratio of IC50 for human MRC5 cells to IC50 for human U118MG cells. The format is toxicity. As to conditions: MRC5 cells and U118MG cells, read-out: Ratio IC50.
Series [2] in a line: Half life in RPMI/FBS cell culture media 9:1 (v/v) at 2 mM by HPLC analysis. It is filed as physicochemical. As to conditions: cattle.
For the next series, the system named is HeLa. Kind of series: Cytostatic activity against human HeLa cells assessed as reduction in cell viability after 48 hrs by MTT assay. The format is functional, cell-based.
Series [3] can be described thus: Selectivity index, ratio of IC50 for human MRC5 cells to IC50 for human U87MG cells. It is filed as toxicity. The conditions noted are these: MRC5 cells and U87MG cells, read-out: Ratio IC50.
In the next series the test system is Caco-2. The series is described as follows: Cytostatic activity against human Caco2 cells assessed as reduction in cell viability after 48 hrs by MTT assay. The format is functional, cell-based. As to conditions: Caco-2, 48 h. A general note: Formazan colour is commonly taken as a measure of viable cells.
Series [4] is described as follows: Stability in RPMI cell culture media at 2 mM by HPLC analysis. The format is physicochemical. The conditions noted are these: 2000 µM.
A short description of series [5]: Selectivity index, ratio of IC50 for human MRC5 cells to IC50 for human T98G cells. As to conditions: MRC5 cells and T98G cells, read-out: Ratio IC50. The format is toxicity.
The subject of the next series is T47D. The series is described as follows: Cytostatic activity against human T47D cells assessed as reduction in cell viability after 48 hrs by MTT assay. It is filed as functional, cell-based.
The nature of series [6]: Half life in human serum at 2 mM by HPLC analysis. It is filed as ADME, cell-free.
The next series deals with MRC5. The series is described as follows: Cytostatic activity against human MRC5 cells assessed as reduction in cell viability after 48 hrs by MTT assay. The format is functional, cell-based. As to conditions: MRC5, 48 h.
A further series deals with T98G. Kind of series: Cytostatic activity against human T98G cells assessed as reduction in cell viability after 48 hrs by MTT assay. It is filed as functional, cell-based.
In the next series the test system is U-118-MG. Kind of series: Cytostatic activity against human U118MG cells assessed as reduction in cell viability after 48 hrs by MTT assay. The format is functional, cell-based.
The next series deals with U-87 MG. The series is described as follows: Cytostatic activity against human U87MG cells assessed as reduction in cell viability after 48 hrs by MTT assay. The format is functional, cell-based, U-87MG ATCC.
The nature of series [7]: Half life in RPMI/FBS cell culture media 9:1 (v/v) assessed as cumulative concentration of metabolites of known anticancer activity at 2 mM by HPLC analysis. It is filed as ADME. The conditions noted are these: 2000 µM.

Consider `O=c1[nH]c(=O)n([C@H]2C[C@H](O)[C@@H](COP(=O)(O)Oc3ccc4ncccc4c3)O2)cc1F`, for which the selectivity ratio in series [1], in [3] and in [5] was under 1 in each case. In addition, the half-life at 2000 µM in [2] was 26 h; in series [6], 26.2 h. In addition, the pIC50 in the series with HeLa is 5.14; with Caco-2 it was 5.85; with T47D, 5.09; in the series with MRC5 it was 5.89; in the series on T98G it was 5.72; with U-118-MG, 5.15. In the series with U-87 MG, the pIC50 is 4.97. Further, the Stability result in [4] is “Stable”.

As to `C[N+]1(C)CCC(OP(=O)([O-])OC[C@H]2O[C@@H](n3cc(F)c(=O)[nH]c3=O)C[C@@H]2OC(=O)c2ccccc2)CC1`, the selectivity ratio was 2 in series [1], 7 in series [3] and 1 in series [5]. Also, the half-life at 2000 µM in series [2] and in series [6] was over 120 h throughout. For the same compound, the pIC50 in the series on HeLa was 4.57; in the series with Caco-2, 4.80; with T47D, 4.93; with MRC5, 5.08; with T98G, 5.17; with U-118-MG it was 5.35. The negative logarithm of the IC50 (pIC50) in the series with U-87 MG was 5.89. Also, the Stability result in series [4] is “Stable”.

With `O=c1[nH]c(=O)n([C@H]2C[C@H](O)[C@@H](COP(=O)(O)Oc3ccccc3)O2)cc1F`, the selectivity ratio is 3 in [1], 1 in [3] and 1 in series [5]. Further, the results for the half-life at 2000 µM in series [2] and in series [6] were 28 h and 52.3 h, respectively. Further, the pIC50 was 4.82 with HeLa; 4.58 in the series on Caco-2; 4.87 in the series on T47D; 4.44 in the series on MRC5; 4.49 in the series with T98G; 4.84 with U-118-MG. The pIC50 with U-87 MG is 4.47. Besides, the Stability entry in series [4] is recorded as “Stable”.

Regarding `CCCCCCCCCc1ccc(OP(=O)(O)OC[C@H]2O[C@@H](n3cc(F)c(=O)[nH]c3=O)C[C@@H]2OC(=O)c2ccccc2)cc1`, the results for the selectivity ratio in series [1], in [3] and in series [5] were 4, 6 and 6, respectively. The half-life at 2000 µM in [2] and in series [6] was over 120 h throughout. Moreover, the pIC50 in the series on HeLa is 4.40; with Caco-2 it was 4.69; with T47D it was 4.57; in the series on MRC5, 4.40; in the series with T98G it was 5.17; with U-118-MG, 4.96. Besides, the pIC50 in the series on U-87 MG is 5.17. For the same compound, the Stability entry in [4] is “Stable”.

For the compound `O=C(O[C@H]1C[C@H](n2cc(F)c(=O)[nH]c2=O)O[C@@H]1COP(=O)(O)Oc1ccc2ncccc2c1)c1ccccc1`, the selectivity ratio is 2 in [1], 1 in [3] and 1 in [5]. For the same compound, the figures for the half-life at 2000 µM in series [2] and in series [6] were 7.7 h and 16.5 h, respectively. Moreover, the negative-log IC50 (pIC50) was 5.14 with HeLa; 5.61 with Caco-2; 5.15 in the series on T47D; 5.89 in the series on MRC5; 5.89 with T98G; 6.10 in the series on U-118-MG. In addition, the pIC50 with U-87 MG was 6.06. The Stability result in series [4] was “Stable”.

Regarding `O=c1[nH]c(=O)n([C@H]2C[C@H](O)[C@@H](COP(=O)(O)Oc3cccnc3)O2)cc1F`, the selectivity ratio in series [1] is under 1; in [3] it was under 1; in series [5] it was 7. In addition, the half-life at 2000 µM in series [2] was 16.7 h; in series [6] it was 19.9 h. Moreover, the pIC50 was 6.15 in the series on HeLa; 5.47 with Caco-2; 5.03 with T47D; 5.07 in the series with MRC5; 5.92 in the series with T98G; 4.56 with U-118-MG. Also, the pIC50 in the series with U-87 MG was 4.40. The Stability result in series [4] was “Stable”.

Turning to `CCOC(=O)C[n+]1cccc2cc(OP(=O)([O-])OC[C@H]3O[C@@H](n4cc(F)c(=O)[nH]c4=O)C[C@@H]3OC(=O)c3ccccc3)ccc21`, the t1/2 in series [7] is 15.6 h. The selectivity ratio in series [1] is 46; in series [3], 66; in series [5], 3. Also, the half-life at 2000 µM was 2 h in [2] and 5.9 h in [6]. The negative logarithm of the IC50 (pIC50) was 6.22 in the series with HeLa; 4.54 in the series on Caco-2; 4.67 with T47D; 4.46 in the series with MRC5; 4.89 with T98G; 6.12 in the series on U-118-MG. The negative-log IC50 (pIC50) in the series on U-87 MG was 6.28. Besides, the Stability result in series [4] is given as “Stable”.

For `C[N+](C)(CCOP(=O)([O-])OC[C@H]1O[C@@H](n2cc(F)c(=O)[nH]c2=O)C[C@@H]1OC(=O)c1ccccc1)Cc1ccccc1`, the selectivity ratio in series [1] was under 1; in series [3], 1; in [5], under 1. In addition, the half-life at 2000 µM was 54 h in series [2] and 96.3 h in series [6]. The pIC50 in the series on HeLa was 5.82; in the series on Caco-2, 4.93; with T47D it was 4.48; in the series on MRC5, 6.22; in the series on T98G it was 5.70; with U-118-MG, 5.43. The pIC50 with U-87 MG is 6.21. For the same compound, the Stability result in series [4] is listed as “Stable”.

Take `C[N+]1(Cc2ccccc2)C2CCC1CC(OP(=O)([O-])OC[C@H]1O[C@@H](n3cc(F)c(=O)[nH]c3=O)C[C@@H]1OC(=O)c1ccccc1)C2` (stereo partly drawn): the selectivity ratio is 1 in [1], 2 in series [3] and 1 in series [5]. Besides, the half-life at 2000 µM in series [2] and in series [6] was over 120 h in each case. Further, the pIC50 in the series with HeLa was under 4.10; in the series on Caco-2 it was under 4.10; in the series with T47D it was under 4.10; in the series on MRC5 it was 4.20; in the series with T98G it was 4.30; in the series on U-118-MG, 4.18. In addition, in the series with U-87 MG, the pIC50 was 4.44. For the same compound, the Stability result in series [4] is on record as “Stable”.

For the compound `CCOC(=O)C[n+]1cccc(OP(=O)([O-])OC[C@H]2O[C@@H](n3cc(F)c(=O)[nH]c3=O)C[C@@H]2OC(=O)c2ccccc2)c1`, the t1/2 in [7] was determined as 8.6 h. The selectivity ratio in series [1] was 6; in [3], 15; in series [5], 5. For the same compound, the half-life at 2000 µM was 1.1 h in series [2] and 1.4 h in [6]. Moreover, the negative logarithm of the IC50 (pIC50) was 5.21 with HeLa; 5.58 in the series on Caco-2; 4.90 with T47D; 5.07 in the series with MRC5; 5.80 in the series on T98G; 5.81 in the series with U-118-MG. Moreover, the pIC50 in the series on U-87 MG was 6.24. For the same compound, the Stability entry in series [4] is “Stable”.

In the case of `O=C(O[C@H]1C[C@H](n2cc(F)c(=O)[nH]c2=O)O[C@@H]1COP(=O)(O)Oc1ccccc1)c1ccccc1`, the selectivity ratio in series [1] worked out at 1; in series [3], 2; in series [5], 2. Further, the half-life at 2000 µM in [2] was 6.6 h; in [6], 5.1 h. Also, the pIC50 in the series on HeLa was 5.23; in the series with Caco-2 it was 5.99; in the series on T47D, 5.16; with MRC5, 5.90; in the series with T98G, 6.09; with U-118-MG, 6.01. Moreover, the pIC50 in the series on U-87 MG was 6.10. Moreover, the Stability result in series [4] is listed as “Stable”.

For `O=C(O[C@H]1C[C@H](n2cc(F)c(=O)[nH]c2=O)O[C@@H]1COP(=O)(O)Oc1cccnc1)c1ccccc1`, the selectivity ratio in series [1] is 17; in [3], 22; in series [5] it was 12. In addition, the values for the half-life at 2000 µM in series [2] and in series [6] were 6.7 h and 17.8 h, respectively. For the same compound, the pIC50 in the series with HeLa was 5.16; in the series on Caco-2, 5.60; with T47D, 4.84; in the series on MRC5, 4.81; in the series with T98G, 5.89; in the series with U-118-MG it was 6.04. Also, in the series with U-87 MG, the pIC50 was 6.15. The Stability result in [4] is “Stable”.

These data come from ChEMBL document CHEMBL4251631, “New antiglioma zwitterionic pronucleotides with an FdUMP framework” (Eur J Med Chem, 2018).
